Results reported in a melting point compilation (Tetko et al.; mined from patent text by program, amines drawn as free bases though some values may be those of a salt).

`CC1(c2ccc3cc(C(O)c4cccnc4)ccc3c2)OCCO1` (stereo not drawn) gave a melting point of 154 to 156 °C. Compound `NCC1Cc2cc(-c3cccc(C(F)(F)F)c3)cc(F)c2O1` (stereo not drawn) has a melting point greater than 250 °C. With `O=C(O)CCCCCCCCn1c(-c2ccccc2)c(-c2ccccc2)n(-c2ccccc2)c1=O` the melting point was 123 to 124 °C. `COc1ccc2c(=O)c(C(N)=O)c(N)oc2c1` gave a melting point of 265 to 266 °C. `O=c1oc(-c2ccc(Cl)c(Cl)c2)cc(O)c1SCc1ccccc1` gave a melting point of 185 to 186 °C. For `CN(Cc1csc(N)c1C(=O)c1ccc(Cl)cc1)c1ccccc1`, the melting point was 129 to 131 °C. Compound `O=C(O)CCc1cc2nc(C(F)(F)F)ccc2n1S(=O)(=O)c1ccccc1` has a melting point of 180 °C. `COc1cc(/C=C/C(=O)NCCN2CCC(c3c[nH]c4ccccc34)CC2)ccc1O` showed a melting point of 115 to 135 °C. Compound `COc1cc(OC)cc(-n2c(-c3ccccc3)cc(=O)c(C)c2-c2ccccc2)c1` has a melting point of 232 to 236 °C. `CCc1[nH]n(C2CCCC2)c2nc(Cc3cccn3C)nc(=O)c1-2` showed a melting point of 214 to 216 °C. With `O=[N+]([O-])C=CC1=CCN(c2ccccc2)N1` the melting point was 150 °C. `O=C(O)C1CCN(S(=O)(=O)c2ccc(Br)cc2)CC1` showed a melting point of 225 to 227 °C. Compound `NC(=O)c1[nH]c2ccccc2c1-c1ccc(NC(=O)Nc2ccc(C(F)(F)F)c(Cl)c2)cc1` has a melting point of 168 to 170 °C. For `Cc1oc(-c2ccccc2)nc1COc1ccc(COc2nn(Cc3ccccc3)cc2C=O)cc1`, the melting point was 133 to 134 °C. `N#Cc1c(Cc2ccccc2)nn(C2CCCC2)c1NC(=O)Cc1ccccc1` gave a melting point of 166 to 168 °C. For `Cc1c(C(=O)O)ccc2c1OCO2`, the melting point was 180 to 182 °C. Work on `O=c1[nH]c2cc(Cl)ccc2n1C1CCN(Cc2cncc(-c3ccccc3)c2)CC1` yielded a melting point of 229 to 231 °C. `O=C(O)c1ccc(OCc2ccccc2OCc2ccccc2)cc1` showed a melting point of 177 to 179 °C. For `Cn1nc(-c2cc3c(cc2F)OCC(=O)N3)c(Cl)c1C(F)(F)F`, the melting point was 207 °C. `CCc1ccc2oc(C(=O)Nc3ccc(-c4ccc(S(=O)(=O)NC(C(=O)O)C(C)C)cc4)cc3)c(C)c2c1O` (stereo not drawn) gave a melting point of 122 to 125 °C. `O=C(O)c1cc(C(=O)C2CCCCC2)cc2c1OC(c1ccccc1)(c1ccccc1)O2` gave a melting point of 212 to 214 °C. `COc1cccc2c1C1(COc3cc4c(cc31)OCO4)C(=O)N2Cc1ccc(C(F)(F)F)o1` (stereo not drawn) showed a melting point of 149 to 153 °C. Work on `O=C1C(Nc2ccccc2)=CC(=O)c2ncccc21` yielded a melting point of 182 to 184 °C. In the case of `CC(C)(C#N)c1cc(CC#N)cc(C(C)(C)C#N)c1`, the melting point is reported as 72 to 73 °C. `COC(=O)C=C1C[N+]([O-])=C(c2ccccc2)c2cc(Cl)ccc2N1` showed a melting point of 215 to 216 °C. `CCOC(=O)CNC(=O)NCCCSc1nccc(NC(N)=NCC(F)(F)F)n1` showed a melting point of 165 to 166 °C. Compound `Brc1ccc(-c2nnnn2Cc2ccccc2)s1` has a melting point of 196 to 197 °C. Work on `CC=CC(=O)Nc1n[nH]c2cc(Br)ccc12` yielded a melting point of 232 °C. `CCOC(=O)C1=C(C)NC(c2sc(C)nc2C)=NC1c1ccc(F)cc1Cl` (stereo not drawn) showed a melting point of 117 to 119 °C. Compound `CC(=O)/C=C(\C)c1ccc(C2CCCCC2)c(Br)c1` has a melting point of 52 to 53 °C. `c1ccc2cc(Cn3c(-c4ccc5c(c4)OCO5)nc4ccccc43)ccc2c1` showed a melting point of 180 °C. In the case of `CCOC(=O)c1cc(C)sc1NN=c1c(C(=O)OCC)c[nH]c2ccccc12`, the melting point is reported as 173 to 174 °C. For `CSc1ccc(O)nn1`, the melting point was 119 °C. `ClCc1ccc(-c2nnc3n2-c2cccnc2Nc2ccccc2-3)cc1` gave a melting point of 260 to 262 °C. Work on `CCC(=O)CC(C(C(=O)CC)c1ccc([N+](=O)[O-])cc1)[N+](=O)[O-]` (stereo not drawn) yielded a melting point of 61.5 to 65.6 °C. `COc1ccc(Cn2c(=O)[nH]c3nccnc3c2=O)cc1` gave a melting point of 233 to 234 °C. In the case of `C=CCOc1ccc2nc(OCC=C(C)C)ccc2c1`, the melting point is reported as 53 to 54 °C. `CCC(=O)Nc1cccc(C(=O)C=CN(C)C)c1` showed a melting point of 106 to 108 °C. For `CCOC(=O)c1ccc(Nc2c(NCc3ccccc3)cc(C(=O)OCC)cc2S(N)(=O)=O)cc1`, the melting point was 161 °C. In the case of `Cc1nn(CC(O)c2ccc(OC(F)(F)F)cc2)c(=O)n1-c1ccc(N2CCN(c3ccc(O)cc3)CC2)cc1` (stereo not drawn), the melting point is reported as 231 °C. In the case of `O=C(O)c1ccc2c(c1F)OC(c1ccccc1)(c1ccccc1)O2`, the melting point is reported as 189 to 191 °C. Compound `O=c1[nH]c2ncc(-c3ccccc3)nc2n1CC1CCCCC1` has a melting point of 253 to 255 °C. In the case of `Cc1ccc(Sc2c(Cl)c(Cl)c(C(O)=NCCO)c(C(=O)O)c2Cl)cc1`, the melting point is reported as 205 to 209 °C. `CCCCc1nc2c(N)nc3ccc(OCc4ccc(OC(F)(F)F)cc4)cc3c2n1C` gave a melting point of 219 to 220 °C. `COc1cccc2c1c(C)c(CCC(=O)O)n2Cc1ccc(Cl)cc1` gave a melting point of 145 °C. Compound `CCOC(=O)CN1CCN(C2=Nc3ccccc3Oc3ccc(Cl)cc32)CC1` has a melting point of 123 to 124 °C. `COc1cccc(OCC(N)=O)c1-c1c(C#N)c2ccccn2c1Nc1c(C)cccc1C` showed a melting point of 227 to 229 °C. For `CC1(C)CC(O)CC(C)(C)N1CC#CCN1C(C)(C)CC(O)CC1(C)C`, the melting point was 203 °C. Compound `CC(C)(C)OC(=O)NCC(COS(C)(=O)=O)NC(=O)OC(C)(C)C` (stereo not drawn) has a melting point of 94 to 96 °C. `CCC(Cc1ccc(C(=O)OC)cc1)NCC(O)c1ccc(O)c(CO)c1` (stereo not drawn) gave a melting point of 64 to 67 °C. For `Clc1cccc(-c2nc(Cl)c3ccccc3n2)c1`, the melting point was 157 to 158 °C. For `O=C(O)CCSc1ccc(CNC(=O)C2Cc3ccccc3N2S(=O)(=O)c2ccc(-c3cccc(C(F)(F)F)c3)cc2)cc1` (stereo not drawn), the melting point was 77 to 81 °C. With `CC(=O)NC(CSSc1ccccc1C(=O)Nc1ccc(S(N)(=O)=O)cc1)C(=O)O` (stereo not drawn) the melting point was 218 to 220 °C. In the case of `Cc1ccc(N2CN(C(=O)c3ccccc3)C3=NN=CC3=C2N)cc1`, the melting point is reported as 297 to 300 °C. With `NC(=O)C1CCN(CC=Cc2ccccc2)CC1` the melting point was 190 to 192 °C. With `Clc1ccc2[nH]cc(C3=CCN(CCOc4ccccc4)CC3)c2c1` the melting point was 172 °C. Compound `CCOC(=S)NC1(N=NC(C)(C)C)CCCCC1` has a melting point of 57 to 62 °C. With `O=C(O)COCCCCN(c1cnc(-c2ccccc2)c(-c2ccccc2)n1)C1CCCCC1` the melting point was 130 to 131 °C. For `CCOc1c(OC)cc(COc2ccc(N)nn2)cc1OC`, the melting point was 169 to 171 °C. For `Cc1[nH]c(=O)c(C#N)cc1-c1ccccc1OCCCC(=O)O`, the melting point was 218 to 220 °C. Work on `CN1C(=O)N(c2cccc(Cl)c2)C(=O)C1S(=O)(=O)c1ccc(F)cc1` (stereo not drawn) yielded a melting point of 170 to 173 °C. In the case of `C#CCOc1cc(OCC=C)ccc1-c1nc2cnncc2[nH]1`, the melting point is reported as 265 °C. With `COC(=O)c1nn(-c2c(Cl)cc(C(F)(F)F)cc2Cl)c(OC)c1SC(F)(F)F` the melting point was 97 to 98 °C. Work on `CCOC(=O)CCC1(NC(=O)c2ccc(Cl)c(Cl)c2)C(=O)Nc2ccccc21` (stereo not drawn) yielded a melting point of 227 to 228 °C. `CCCC(CC)(C(=O)N(C)C)n1cc(C)c(-c2ccccc2)n1` (stereo not drawn) showed a melting point of 147 to 148 °C. Compound `Cc1nc(-n2ccc(OCc3ccc(C(F)(F)F)o3)cc2=O)sc1C(=O)NCc1ccccc1` has a melting point of 214 to 216 °C. With `CN1C(=O)C(C)(C)C(=O)Nc2cc(C#N)ccc21` the melting point was 289 to 294 °C. For `CCNC(=O)NCC(CO)c1cccc2ccc(OC)cc12` (stereo not drawn), the melting point was 120 to 122 °C. For `COC(=O)C1(Cl)CCC(=O)O1` (stereo not drawn), the melting point was 50.5 to 51 °C. In the case of `O=C(CCCCCNCC(O)c1ccccc1)OCc1ccccc1` (stereo not drawn), the melting point is reported as 77 to 78 °C. With `O=C(O)c1ccc(NCCCCCCCCCCc2ccccc2)cc1` the melting point was 80 to 87 °C. `Nc1nc(N2CCC2)c2ncn(C3C=CC(CO)C3)c2n1` (stereo not drawn) showed a melting point of 187 to 189 °C. `CCCCCCCCCCC1(CCCCCCCCCC)c2cc(Br)ccc2-c2ccc(I)cc21` showed a melting point of 43 to 45 °C. In the case of `[N-]=[N+]=Nc1nc(N)c2ncn(COCCO)c2n1`, the melting point is reported as 191 to 192 °C. For `N#Cc1cc2sccc2nc1I`, the melting point was 190 to 191 °C. `CC(C)C(=O)OC[C@@]1(N=[N+]=[N-])O[C@@H](n2ccc(N)nc2=O)[C@@H](OC(=O)C(C)C)[C@@H]1OC(=O)C(C)C` gave a melting point of 167 to 169 °C. For `O=C(O)c1ccc(-c2coc3ccccc23)cc1`, the melting point was 222 to 225 °C. In the case of `C#CCOc1ccc(OC)cc1-c1nc2ncccc2[nH]1`, the melting point is reported as 220 °C. `COc1ccc(C)cc1NC(=O)Nc1ccc(N2CCN(C(=O)Nc3ccc(OCCO)cc3C(F)(F)F)CC2)c(C#N)c1` gave a melting point of 135 to 137 °C. For `Cc1noc(NS(=O)(=O)c2ccccc2-c2ccc(-c3nccs3)cc2)c1C`, the melting point was 87 to 97 °C. `CCc1cc(C)cc(CC)c1C1C(=O)CC(CC(C)S(=O)CC)CC1=O` (stereo not drawn) gave a melting point of 58 to 61 °C. For `COc1cccc(COc2ccc(S(=O)(=O)c3ccc(C)nc3Nc3c(C)cc(C)cc3C)cc2)c1OC`, the melting point was 124 to 126 °C. `CCOC(=O)C1=CNC2=C(C(=S)Nc3ccccc3)CCC(C)N2C1=O` (stereo not drawn) showed a melting point of 173 to 175 °C. `CON=C(Cn1ncc(-c2ccc(S(C)(=O)=O)cc2)c(-c2ccc(F)cc2)c1=O)c1ccccc1` showed a melting point of 95 to 99 °C. Work on `O=C(NC(Cc1ccc(OCc2ccc(F)cc2)cc1)C(=O)O)c1cc2cc(-c3ccc(Cl)cc3)ccc2s1` (stereo not drawn) yielded a melting point of 189 to 190 °C. Work on `CN1C(=O)SC(Cc2cn(-c3ccccc3)nc2O)C1=O` (stereo not drawn) yielded a melting point of 233 to 234 °C. Work on `CCOC(=O)/C=C(/c1ccc(OC)cc1)c1cc(Cl)ccc1Cl` yielded a melting point of 98 to 100 °C. Work on `CCSC1=N[C@@H](c2ccc(OC)cc2)[C@@H](c2ccc(OC)cc2)N1` yielded a melting point of 92 to 93 °C. `C=CCc1cc(C)cc(C(Nc2ccc(C(=N)N)cc2)C(=O)O)c1OCCO` (racemic) showed a melting point of 228 °C. For `COc1cc2ccnc(N3CCN(C(=O)Nc4ccc([N+](=O)[O-])cc4)CC3)c2cc1OC`, the melting point was 247 to 248 °C. `COc1ncccc1NC(=NC#N)NC(NC(=O)c1cc(Cl)cc(Cl)c1)C(C)(Cl)Cl` (stereo not drawn) showed a melting point of 149 to 150 °C. Compound `CCCCCCCCCCCCCCCCOc1coc(C(=O)O)cc1=O` has a melting point of 126 to 130 °C. With `O=c1[nH]c(=O)n(CCCCBr)c2cc(Cl)ccc12` the melting point was 180 to 182 °C. Work on `COc1cc2c(Nc3cc(OC)c(OC)c(OC)c3)c(C#N)cnc2cc1/C=C/CCN1CCN(C)CC1` yielded a melting point of 122 to 124 °C. Work on `O=C1NC(=O)C(c2cn3c4c(cccc24)CC3)C1c1c[nH]c2ccccc12` (stereo not drawn) yielded a melting point of 144 to 148 °C. For `NC(=NCC(F)(F)F)Nc1ccnc(CCCCO)n1`, the melting point was 135 to 136 °C. For `CCNC1=CC(=O)c2c(OC)ccc(OC)c2C1=O`, the melting point was 172 to 173 °C. `CCCCCCC=CCC1CC(=O)N(c2cc(Cc3n[nH]c(=O)c4ccccc34)ccc2F)C1=O` (stereo not drawn) showed a melting point of 146 to 149 °C.
